From patent publication US8067445B2, “N,N-disubstituted aminoalkylbiphenyl antagonists of prostaglandin D2 receptors” (Panmira Pharmaceuticals, LLC, priority 2008, dated 2011)

What was measured:
human DP2 receptor = molecular target: T1, human DP2 receptor (Homo sapiens, UniProt Q9Y5Y4); assay: DP2/CRTH2 radioligand binding assay ([3H]PGD2); details: [3H]PGD2 binding, membranes of HEK293 cells expressing human DP2; read-out: hDP2
T1 construct: expressed in transfected cells
T1 sequence (Q9Y5Y4 1-395): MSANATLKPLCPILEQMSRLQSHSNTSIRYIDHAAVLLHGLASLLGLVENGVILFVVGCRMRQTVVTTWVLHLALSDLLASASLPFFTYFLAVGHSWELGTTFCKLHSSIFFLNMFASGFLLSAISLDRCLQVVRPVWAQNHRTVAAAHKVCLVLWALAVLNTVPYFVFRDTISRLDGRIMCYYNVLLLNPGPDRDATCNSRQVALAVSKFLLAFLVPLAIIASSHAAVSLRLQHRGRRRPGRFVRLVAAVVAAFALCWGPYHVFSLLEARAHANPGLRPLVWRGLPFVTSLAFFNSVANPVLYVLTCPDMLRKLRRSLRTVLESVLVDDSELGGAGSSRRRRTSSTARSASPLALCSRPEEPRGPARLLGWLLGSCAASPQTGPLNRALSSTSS
How it was run: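 Membranes from HEK293 cells stably expressing recombinant human DP2 incubated 60 min at room temperature with 1 nM [3H]PGD2 and compound in pH 7.4 Hepes/MnCl2/EDTA buffer, ± 0.2% human serum albumin. Bound radioactivity measured after filtration; non-specific binding defined with 10 μM PGD2. IC50 from titration curves.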

human DP1 receptor = molecular target: T2, human DP1 receptor (Homo sapiens, UniProt Q13258); assay: DP1 radioligand binding assay ([3H]BWA868C, platelet membranes); details: [3H]BWA868C binding, human platelet membranes; read-out: hDP1
T2 construct: tissue Biological Specialty Corporation; host or cells: human platelet membranes
T2 sequence (Q13258 1-359): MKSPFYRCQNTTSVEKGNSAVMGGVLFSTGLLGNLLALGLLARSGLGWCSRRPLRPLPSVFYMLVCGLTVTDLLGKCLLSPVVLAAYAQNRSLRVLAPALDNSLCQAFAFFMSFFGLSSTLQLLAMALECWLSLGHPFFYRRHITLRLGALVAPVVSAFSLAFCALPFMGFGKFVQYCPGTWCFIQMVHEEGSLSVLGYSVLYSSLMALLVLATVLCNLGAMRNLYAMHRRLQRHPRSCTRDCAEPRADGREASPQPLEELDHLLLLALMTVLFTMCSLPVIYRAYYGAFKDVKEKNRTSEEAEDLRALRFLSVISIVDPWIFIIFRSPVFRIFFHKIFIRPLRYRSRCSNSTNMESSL
Experimental: The ability of a compound to bind to the human DPI receptor was evaluated via a radioligand membrane binding assay using the DP1 selective synthetic ligand [^311]BWA868C. Packed human platelets (Biological Specialty Corporation), were resuspended in 6 volumes of Hepes/HBSS buffer (10 mM Hepes, 1 mM DTT in Hanks Balanced Salt Solution (HBSS)), lysed and centrifuged at 75,000×g to pellet the membranes. Membranes were resuspended in Hepes/HBSS buffer to approximately 12 mg protein/ml. Membranes (20 μg protein/well) are incubated in 96-well plates with 2 nM [^3H]BWA868C and test compound in Assay Buffer (50 mM Hepes, 10 mM MnCl2, 1 mM EDTA, plus or minus 0.2% human serum albumin, pH 7.4) for 60 minutes at room temperature. The reactions are terminated by rapid filtration through Whatman GF/C glass fibre filter plates. The filter plates were pre-soaked in 0.33% polyethylenimine for 30 minutes at room temperature then washed in Wash Buffer (50 mM Hepes, 0.5 M NaCl pH 7.4) prior to harvesting. After harvesting, the filter plates are washed 3 times with 1 ml cold Wash Buffer then dried. Scintillant is then added to the plates and the radioactivity retained on the filters is determined on a Packard TopCount (Perkin Elmer). Specific binding is determined as total radioactive binding minus non-specific binding in the presence of 10 μM BW A868C. IC50s were determined using GraphPad prism analysis of drug titration curves.

Row | SMILES | IC50 (human DP2 receptor) [nM] | IC50 (human DP1 receptor) [nM]
1 | COc1ccc(CC(=O)O)cc1-c1ccc(C(F)(F)F)cc1CN(C(C)=O)[C@@H]1c2ccccc2C[C@@H]1O [Compound 1-15, (2′-{[Acetyl-((1R,2S)-2-hydroxy-indan-1-yl)-amino]-methyl}-6-methoxy-4′-trifluoromethyl-biphenyl-3-yl)-acetic acid] | 1000 to 30000 | 1000 to 30000
2 | CC(=O)N(Cc1cc(C(F)(F)F)ccc1-c1cc(CC(=O)O)ccc1F)CC(F)(F)F [Compound 1-11, (2′-{[Acetyl-(2,2,2-trifluoro-ethyl)-amino]-methyl}-6-fluoro-4′-trifluoromethyl-biphenyl-3-yl)-acetic acid] |  | 1000 to 30000
3 | CCN(Cc1cc(C(F)(F)F)ccc1-c1cc(CC(=O)O)ccc1OC)C(=O)N[C@H](C)c1ccc(Cl)cc1 [Compound 1-179, (2′-{3-[(R)-1-(4-Chloro-phenyl)-ethyl]-1-ethyl-ureidomethyl}-6-methoxy-4′-trifluoromethyl-biphenyl-3-yl)-acetic acid] |  | 1000 to 30000
4 | COc1ccc(CC(=O)O)cc1-c1ccc(C(F)(F)F)cc1CN(C(=O)OCc1ccccc1)C1CCC1 [Compound 1-34, {2′-[(Benzyloxycarbonyl-cyclobutyl-amino)-methyl]-6-methoxy-4′-trifluoromethyl-biphenyl-3-yl}-acetic acid] |  | 1000 to 30000
5 | CCN(Cc1cc(C(F)(F)F)ccc1-c1cc(CC(=O)O)ccc1OC)C(=O)NCc1ccc(F)cc1 [Compound 1-176, {2′-[1-Ethyl-3-(4-fluoro-benzyl)-ureidomethyl]-6-methoxy-4′-trifluoromethyl-biphenyl-3-yl}-acetic acid] |  | 1000 to 30000
6 | CCN(Cc1cc(F)ccc1-c1cc(CC(=O)O)ccc1OC)C(=O)NCc1ccccc1 [Compound 1-187, [2′-(3-Benzyl-1-ethyl-ureidomethyl)-4′-fluoro-6-methoxy-biphenyl-3-yl]-acetic acid] |  | 1000 to 30000
7 | CCN(Cc1cc(C(F)(F)F)ccc1-c1cc(CC(=O)O)ccc1OC)C(C)=O [Compound 1-2, {2′-[(Acetyl-ethyl-amino)-methyl]-6-methoxy-4′-trifluoromethyl-biphenyl-3-yl}-acetic acid] |  | 1000 to 30000
8 | COc1ccc(CC(=O)O)cc1-c1ccc(C(F)(F)F)cc1CN(C(C)=O)C1CCCC1 [Compound 1-31, {2′-[(Acetyl-cyclopentyl-amino)-methyl]-6-methoxy-4′-trifluoromethyl-biphenyl-3-yl}-acetic acid] |  | 1000 to 30000
9 | COc1ccc(CC(=O)O)cc1-c1ccc(C(F)(F)F)cc1CN(C(C)=O)C1CC1 [Compound 1-12, {2′-[(Acetyl-cyclopropyl-amino)-methyl]-6-methoxy-4′-trifluoromethyl-biphenyl-3-yl}-acetic acid] |  | 1000 to 30000
10 | CCN(Cc1cc(C(F)(F)F)ccc1-c1cc(CC(=O)O)ccc1OC)C(=O)C1CC1 [Compound 1-33, {2′-[(Cyclopropanecarbonyl-ethyl-amino)-methyl]-6-methoxy-4′-trifluoromethyl-biphenyl-3-yl}-acetic acid] |  | 1000 to 30000
11 | CN(Cc1cc(C(F)(F)F)ccc1-c1cc(CC(=O)O)ccc1F)C(=O)OCc1ccccc1 [Compound 1-29, {2′-[(Benzyloxycarbonyl-methyl-amino)-methyl]-6-fluoro-4′-trifluoromethyl-biphenyl-3-yl}-acetic acid] |  | 1000 to 30000
12 | CCN(Cc1cc(C(F)(F)F)ccc1-c1cc(CC(=O)O)ccc1OC)C(=O)OC(C)c1ccc(Cl)cc1 (centres unmarked) [Compound 1-44, [2′-({[1-(4-Chloro-phenyl)-ethoxycarbonyl]-ethyl-amino}-methyl)-6-methoxy-4′-trifluoromethyl-biphenyl-3-yl]-acetic acid] |  | 1000 to 30000
13 | COc1ccc(CC(=O)O)cc1-c1ccc(C(F)(F)F)cc1CN(C(C)=O)C1CCC1 [Compound 1-30, {2′-[(Acetyl-cyclobutyl-amino)-methyl]-6-methoxy-4′-trifluoromethyl-biphenyl-3-yl}-acetic acid] |  | 1000 to 30000
14 | CCN(Cc1cc(NC(C)=O)ccc1-c1cc(CC(=O)O)ccc1OC)C(=O)OCc1ccccc1 [Compound 1-153, {4′-Acetylamino-2′-[(benzyloxycarbonyl-ethyl-amino)-methyl]-6-methoxy-biphenyl-3-yl}-acetic acid] |  | 1000 to 30000

Results, then the compound that gave them:

Row | IC50 (human DP2 receptor) [nM] | IC50 (human DP1 receptor) [nM] | SMILES
15 | 1000 to 30000 | 1000 to 30000 | CCN(Cc1cc(C(F)(F)F)ccc1-c1cc(Cc2nn[nH]n2)ccc1OC)C(=O)C1CC1 [Compound 2-7, Cyclopropanecarboxylic acid ethyl-[2′-methoxy-5′-(2H-tetrazol-5-ylmethyl)-4-trifluoromethyl-biphenyl-2-ylmethyl]-amide]
16 | 1000 to 30000 | 1000 to 30000 | CCN(Cc1cc(C(F)(F)F)ccc1-c1cc(CC(C)(C)O)ccc1OC)C(C)=O [Compound 2-2, N-Ethyl-N-[5′-(2-hydroxy-2-methyl-propyl)-2′-methoxy-4-trifluoromethyl-biphenyl-2-ylmethyl]-acetamide]
17 | < 300 | 1000 to 30000 | CCCN/C(=N\C#N)N(CC)Cc1cc(C(F)(F)F)ccc1-c1cc(CC(=O)O)ccc1OC [Compound 1-145, [2′-(N′-Cyano-N-ethyl-N″-propyl-guanidinomethyl)-6-methoxy-4′-trifluoromethyl-biphenyl-3-yl]-acetic acid]
18 | < 300 | 1000 to 30000 | CCN(Cc1ccc(C)cc1-c1cc(CC(=O)O)ccc1OC)C(=O)C1CC1 [Compound 1-171, {2′-[(Cyclopropanecarbonyl-ethyl-amino)-methyl]-6-methoxy-5′-methyl-biphenyl-3-yl}-acetic acid]
19 | < 300 | 1000 to 30000 | CCN(Cc1ccc(C(F)(F)F)cc1-c1cc(CC(=O)O)ccc1OC)C(=O)C1CC1 [Compound 1-170, {2′-[(Cyclopropanecarbonyl-ethyl-amino)-methyl]-6-methoxy-5′-trifluoromethyl-biphenyl-3-yl}-acetic acid]
20 | < 300 | < 300 | CCN(Cc1cc(C(F)(F)F)ccc1-c1cc(Cc2nn[nH]n2)ccc1OC)C(=O)OCc1ccccc1 [Compound 2-5, Ethyl-[2′-methoxy-5′-(2H-tetrazol-5-ylmethyl)-4-trifluoromethyl-biphenyl-2-ylmethyl]-carbamic acid benzyl ester]
21 | < 300 | 1000 to 30000 | CCN(Cc1cc(C(F)(F)F)ccc1-c1cc(CC(=O)O)ccc1OC)C(=O)Cn1ccnc1C [Compound 1-149, [2′-({Ethyl-[2-(2-methyl-imidazol-1-yl)-acetyl]-amino}-methyl)-6-methoxy-4′-trifluoromethyl-biphenyl-3-yl]-acetic acid]
22 | < 300 | 1000 to 30000 | CCN(Cc1cc(NC(=O)c2ccc(Cl)cc2)ccc1-c1cc(CC(=O)O)ccc1OC)C(=O)OCc1ccccc1 [Compound 1-154, [2′-[(Benzyloxycarbonyl-ethyl-amino)-methyl]-4′-(4-chloro-benzoylamino)-6-methoxy-biphenyl-3-yl]-acetic acid]
23 | 1000 to 30000 | 1000 to 30000 | COc1ccc(CC(=O)O)cc1-c1ccc(C(=O)O)cc1CN(CC(F)(F)F)C(C)=O [Compound 1-37, 2-{[Acetyl-(2,2,2-trifluoro-ethyl)-amino]-methyl}-5′-carboxymethyl-2′-methoxy-biphenyl-4-carboxylic acid]
24 | < 300 | 1000 to 30000 | CCN(Cc1cc(C(F)(F)F)ccc1-c1cc(F)cc(CC(=O)O)c1)C(=O)NCc1ccccc1 [Compound 1-159, [2′-(3-Benzyl-1-ethyl-ureidomethyl)-5-fluoro-4′-trifluoromethyl-biphenyl-3-yl]-acetic acid]
